We go through 13 compounds from the CheMixHub viscosity set.

Molecules are shown by their SMILES. Values joined by “and” are separate entries in the source; they are usually repeats but may differ in a detail not shown here. Equal entries are not always repeated. ± gives the uncertainty stated by the source.

What is called viscosity is the internal friction of a fluid under shear. Read a high viscosity as sluggish flow. As to `C=C(C)C(=O)OCCCCCCC`, the viscosity (303 K, 101 kPa) is 1.516 ± 0.029 mPa·s; the viscosity (313 K, 101 kPa) turned out to be 1.275 ± 0.021 mPa·s; the viscosity (323 K, 101 kPa) came to 1.105 ± 0.015 mPa·s.
Regarding `CC(C)CCCC(C)CCCC(C)CCCC(C)C` (stereo not given), the viscosity (298.15 K, 101.33 kPa) is 5.479 ± 0.066 mPa·s.
Consider `CC(F)F`, for which the viscosity runs as follows: (293.35 K, 101 kPa) 0.172 ± 0.0047 mPa·s; (294.75 K, 101 kPa) 0.177 ± 0.0049 mPa·s; (313.35 K, 101 kPa) 0.1402 ± 0.0038 mPa·s; (314.25 K, 101 kPa) 0.1409 ± 0.0038 mPa·s.
As for `CC(O)C(C)O` (stereo not given), the viscosity amounted to 57.11 ± 0.39 mPa·s (308.15 K, 101.3 kPa); 39.26 ± 0.38 mPa·s (313.15 K, 101.3 kPa); 27.62 ± 0.27 mPa·s (318.15 K, 101.3 kPa); 16.98 ± 1 mPa·s (323.15 K, 101 kPa).
Take `CCCCCCCCCCCCO`: the viscosity (303.15 K, 101.33 kPa) was determined as 12.95 ± 0.12 mPa·s.
Under “303.15 K, 101 kPa”, `CCCCCCCCCCCCOS(=O)(=O)[O-].CCCCn1cc[n+](C)c1` gave a viscosity of 1.32e+07 ± 4.3e+06 mPa·s.
As to `CCCCCCCCN`, the viscosity runs as follows: (303.15 K, 101 kPa) 1.169 ± 0.023 mPa·s and 1.169 ± 0.013 mPa·s and 1.165 ± 0.0096 mPa·s; (303.15 K, 101.33 kPa) 1.165 ± 0.0096 mPa·s; (308.15 K, 101 kPa) 0.9267 ± 0.095 mPa·s and 0.9267 ± 0.012 mPa·s; (313.15 K, 101 kPa) 0.9864 ± 0.0085 mPa·s; (313.15 K, 101.33 kPa) 0.9864 ± 0.0085 mPa·s.
Regarding `CCOC(=O)c1ccccc1C(=O)OCC`, the viscosity (313.15 K, 101.33 kPa) was determined as 6.3 ± 0.063 mPa·s.
`COC(=O)OCC(F)(F)F`: the viscosity is, setting by setting: (298.15 K, 100 kPa) 1 ± 0.022 mPa·s; (313.15 K, 100 kPa) 0.74 ± 0.016 mPa·s.
In the case of `Fc1ccccc1`, the viscosity reads like this: (303.15 K, 101 kPa) 0.514 ± 0.011 mPa·s and 0.523 ± 0.019 mPa·s and 0.523 ± 0.011 mPa·s; (308.15 K, 101 kPa) 0.495 ± 0.018 mPa·s and 0.495 ± 0.01 mPa·s; (313.15 K, 101 kPa) 0.46 ± 0.011 mPa·s and 0.467 ± 0.017 mPa·s and 0.467 ± 0.01 mPa·s.
In the case of `O=C(O)C(Cl)Cl`, the viscosity is, setting by setting: (308.15 K, 101 kPa) 4.779 ± 0.2 mPa·s; (323.15 K, 101 kPa) 3.243 ± 0.14 mPa·s.
Consider `[Br-].[Br-].[Br-].[Br-].[Sn+4]`, for which the viscosity is 1.97 ± 0.07 mPa·s and 2.101 ± 0.055 mPa·s (313.15 K, 101 kPa); 1.78 ± 0.07 mPa·s (323.15 K, 101 kPa).
Compound `c1ccc(Nc2ccccc2)cc1` displayed a viscosity (323.15 K, 101 kPa) of 5.95 ± 0.35 mPa·s.
